The term EC50 denotes the concentration at which the effect is half-maximal.

Inconclusive results are not listed.

Chain of Huntingtin (Homo sapiens) (P42858 whole entry, looked up): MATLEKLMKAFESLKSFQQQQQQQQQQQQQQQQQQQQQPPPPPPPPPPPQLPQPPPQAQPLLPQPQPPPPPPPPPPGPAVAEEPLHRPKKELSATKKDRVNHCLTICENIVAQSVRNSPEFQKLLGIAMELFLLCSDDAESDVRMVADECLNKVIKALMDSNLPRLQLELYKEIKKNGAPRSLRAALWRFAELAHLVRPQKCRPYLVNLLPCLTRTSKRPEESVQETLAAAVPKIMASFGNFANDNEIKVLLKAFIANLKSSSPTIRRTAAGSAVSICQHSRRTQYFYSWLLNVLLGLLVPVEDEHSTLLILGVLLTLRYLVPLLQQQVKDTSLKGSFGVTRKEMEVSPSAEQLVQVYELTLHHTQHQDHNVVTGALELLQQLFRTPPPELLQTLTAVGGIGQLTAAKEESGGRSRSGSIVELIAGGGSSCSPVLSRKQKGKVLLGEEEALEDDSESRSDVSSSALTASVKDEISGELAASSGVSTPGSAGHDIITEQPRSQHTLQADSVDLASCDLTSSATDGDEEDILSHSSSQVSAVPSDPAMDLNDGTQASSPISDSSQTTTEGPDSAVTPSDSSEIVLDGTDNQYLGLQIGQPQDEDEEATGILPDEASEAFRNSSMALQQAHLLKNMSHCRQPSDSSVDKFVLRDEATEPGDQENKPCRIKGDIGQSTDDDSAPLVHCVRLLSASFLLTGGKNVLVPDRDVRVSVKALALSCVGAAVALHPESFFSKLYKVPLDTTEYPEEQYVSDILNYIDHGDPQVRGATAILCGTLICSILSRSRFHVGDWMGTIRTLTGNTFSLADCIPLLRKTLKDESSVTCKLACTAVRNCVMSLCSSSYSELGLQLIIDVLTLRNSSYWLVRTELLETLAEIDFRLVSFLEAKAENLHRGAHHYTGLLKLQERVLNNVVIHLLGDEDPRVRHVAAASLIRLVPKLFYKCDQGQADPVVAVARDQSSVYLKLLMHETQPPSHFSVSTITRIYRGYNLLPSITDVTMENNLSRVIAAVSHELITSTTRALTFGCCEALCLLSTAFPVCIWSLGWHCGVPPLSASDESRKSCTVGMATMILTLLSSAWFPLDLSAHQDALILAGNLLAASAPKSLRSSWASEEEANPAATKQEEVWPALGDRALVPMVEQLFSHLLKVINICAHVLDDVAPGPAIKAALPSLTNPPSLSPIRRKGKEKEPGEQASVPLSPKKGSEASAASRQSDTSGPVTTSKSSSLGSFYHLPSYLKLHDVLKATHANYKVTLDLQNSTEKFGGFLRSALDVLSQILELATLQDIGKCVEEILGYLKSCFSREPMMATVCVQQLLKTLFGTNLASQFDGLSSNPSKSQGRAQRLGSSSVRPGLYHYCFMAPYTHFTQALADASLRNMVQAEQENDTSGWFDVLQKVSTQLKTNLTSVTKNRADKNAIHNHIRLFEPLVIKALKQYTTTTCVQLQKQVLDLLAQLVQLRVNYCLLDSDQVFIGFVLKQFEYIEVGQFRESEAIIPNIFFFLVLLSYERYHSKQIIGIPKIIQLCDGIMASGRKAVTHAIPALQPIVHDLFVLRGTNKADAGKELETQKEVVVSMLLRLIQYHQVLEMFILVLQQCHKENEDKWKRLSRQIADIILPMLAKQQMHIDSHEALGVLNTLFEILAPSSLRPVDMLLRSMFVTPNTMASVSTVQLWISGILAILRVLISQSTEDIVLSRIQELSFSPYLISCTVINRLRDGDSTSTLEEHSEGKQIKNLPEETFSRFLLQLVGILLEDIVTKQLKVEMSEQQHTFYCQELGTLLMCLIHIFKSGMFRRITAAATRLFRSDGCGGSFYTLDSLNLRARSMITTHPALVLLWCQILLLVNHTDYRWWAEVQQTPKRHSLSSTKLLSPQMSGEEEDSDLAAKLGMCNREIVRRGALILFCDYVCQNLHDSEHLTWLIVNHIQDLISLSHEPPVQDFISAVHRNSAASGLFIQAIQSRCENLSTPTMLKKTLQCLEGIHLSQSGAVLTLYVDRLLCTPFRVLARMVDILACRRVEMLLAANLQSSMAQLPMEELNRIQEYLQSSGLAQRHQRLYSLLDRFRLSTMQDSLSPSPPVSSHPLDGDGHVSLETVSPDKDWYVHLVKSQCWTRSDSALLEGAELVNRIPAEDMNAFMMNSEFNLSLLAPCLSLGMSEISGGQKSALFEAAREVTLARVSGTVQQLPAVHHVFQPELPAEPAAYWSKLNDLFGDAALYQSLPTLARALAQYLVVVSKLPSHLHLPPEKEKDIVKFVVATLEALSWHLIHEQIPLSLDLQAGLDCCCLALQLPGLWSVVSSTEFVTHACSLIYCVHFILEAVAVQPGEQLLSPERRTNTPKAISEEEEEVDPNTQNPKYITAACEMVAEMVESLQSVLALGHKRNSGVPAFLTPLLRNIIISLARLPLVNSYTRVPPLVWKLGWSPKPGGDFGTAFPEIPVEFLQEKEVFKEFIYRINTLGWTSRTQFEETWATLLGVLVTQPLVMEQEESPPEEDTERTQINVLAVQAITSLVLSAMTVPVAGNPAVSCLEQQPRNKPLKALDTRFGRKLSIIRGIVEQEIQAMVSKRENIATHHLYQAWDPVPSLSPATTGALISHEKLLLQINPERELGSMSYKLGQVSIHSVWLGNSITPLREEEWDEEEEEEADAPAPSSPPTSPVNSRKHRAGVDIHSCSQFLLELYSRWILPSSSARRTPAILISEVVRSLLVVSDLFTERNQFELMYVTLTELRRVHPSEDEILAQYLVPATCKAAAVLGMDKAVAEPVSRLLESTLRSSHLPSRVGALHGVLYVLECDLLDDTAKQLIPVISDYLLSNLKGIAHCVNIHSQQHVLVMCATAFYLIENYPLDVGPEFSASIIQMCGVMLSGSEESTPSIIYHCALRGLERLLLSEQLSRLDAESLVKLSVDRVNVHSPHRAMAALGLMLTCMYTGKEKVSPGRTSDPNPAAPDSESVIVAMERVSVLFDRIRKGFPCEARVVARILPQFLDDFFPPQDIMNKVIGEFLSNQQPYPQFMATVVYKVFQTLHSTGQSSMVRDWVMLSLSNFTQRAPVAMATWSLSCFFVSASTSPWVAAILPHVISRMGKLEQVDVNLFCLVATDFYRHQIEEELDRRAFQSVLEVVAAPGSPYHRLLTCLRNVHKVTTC

The test addresses Huntingtin (Homo sapiens) (UniProt P42858). The test can be described thus: mutant huntingtin aggregation blockers – QA1, dose response (AID 1584). The note with it: in vitro mutant huntingtin aggregation assay.
For the compound `O=c1c(O)c(-c2ccc(O)cc2O)oc2cc(O)cc(O)c12`, the EC50 is 17 µM.

Turning to `C[C@@]1(C(=O)O)CC[C@]2(C)CC[C@]3(C)C4=CC=C5C=C(O)C(=O)C=C5[C@]4(C)CC[C@@]3(C)[C@@H]2C1`, the EC50 was 3.55 µM.

Take `C=C1c2c(Cl)ccc(O)c2C(O)=C2C(=O)[C@]3(O)C(O)=C(C(N)=O)C(=O)[C@@H](N(C)C)[C@@H]3[C@@H](O)[C@H]12`: the EC50 was 14.8 µM.

On to `CC(C)=CCCC1(C)C=Cc2c(O)c3c(c(CC=C(C)C)c2O1)OC12C(=CC4CC1C(C)(C)OC2(C/C=C(/C)C(=O)O)C4=O)C3=O` (stereo not given), for which the EC50 was 0.87 µM.

Turning to `Cc1cc(/C=C/c2ccc3cc(N(C)C)ccc3[n+]2C)c(C)n1-c1ccccc1`, the EC50 is 21.7 µM.

Consider `Cc1cc2c(C(C)C)c(O)c(O)c(C=O)c2c(O)c1-c1c(C)cc2c(C(C)C)c(O)c(O)c(C=O)c2c1O`, for which the EC50 is 0.65 µM.

Consider `C[n+]1cc2c3c(ccc2c2ccc4cc5c(cc4c21)OCO5)OCO3`, for which the EC50 was 5.7 µM.

For `O=C1C=CC(=O)c2c(O)cccc21`, the EC50 is 2.67 µM.

As to `C=Cc1c(C)c2cc3[nH]c(cc4nc(cc5nc(cc1[nH]2)C(C)=C5CCC(=O)O)C(CCC(=O)O)=C4C)c(C)c3C=C`, the EC50 is 19.7 µM.

As to `O=C1c2c(O)cccc2Cc2cccc(O)c21`, the EC50 was 10.5 µM.

These data come from PubChem BioAssay AID1584 (NINDS Approved Drug Screening Program, 2009).
